From US20060127400A1, “Activation of regulatory T cells by alpha-melanocyte stimulating hormone” (THE SCHEPENS EYE RESEARCH INSTITUTE, INC., priority 1999, published 2006)
Entries after “also recorded” stand apart in the source; their conditions may differ. No end group written: not given here.

How the values were obtained:
primed T cells = test: lymphokine production by TCR-stimulated primed T cells, sandwich ELISA of culture supernatant; format: cell-based, mouse (BALB/c); conditions: 48 h supernatant
Experimental: Sandwich Enzyme Linked Immunosorbent Assay (ELISA). The wells of a 96-well flexible microtiter plate (Falcon, Oxnard, Calif.) were coated with capturing monoclonal antibody (anti-IFN-γ; Pharmingen, San Diego, Calif.) to the cytokine being assayed. The plate was incubated overnight at 4° C. and was washed with a solution of phosphate buffer saline, […] and 1% BSA (wash buffer) and blocked with PBS plus 1% BSA (PBS-BSA). The plate was incubated for 1 hour room temperature and washed. Samples were added to the wells and the plate was incubated for 3 hours at room temperature. The plate was washed 3 times and into each well 100 μl of 1.0 μg/ml of biotinylated-detecting monoclonal anti-IFN-γ antibody (Pharmingen) was added. The plate was incubated for 1 hour and washed 3 times. Strepavidin-β-galactosidase (Gibco/BRL), 100 μl, was added to the wells and the plate was incubated for 30 min and washed 5 times. The substrate chlorophenyl-red-β-D-galactoside (CPRG: Calbiochem, San Diego, Calif.) was added to the wells and color was allowed to develop for 30 min. The optical density of the converted CPRG was read on a standard ELISA plate reader at a wavelength of 570 nm. The INF-γ concentration of the standard samples were plotted against their OD to create a standard curve. Using this standard curve, the concentration of INF-γ in the assayed culture supernatant was determined from the OD of the test well and sample dilution factor.
α-MSH treatment of primed T cells. […] The cells were collected onto filter paper using a Tomtec Plate Harvester 96, and radiolabel was measured using a Wallac 1205 Betaplate Liquid Scintillation Counter. […]
In FIG. 16A, proliferation was measured by adding to the T cell cultures 3H-thymidine 24 hours after activation and measuring the counts per minute (CPM) 24 hours later. In FIG. 16(B-D), lymphokine production was measured by assaying the 48 hour culture supernatants by sandwich ELISA for IFN-γ, IL-4, and IL-10. […]

CD4+ T cells = test: flow cytometry of intracellular IFN-γ and IL-4 in TCR-stimulated primed T cells; format: cell-based, mouse (BALB/c); conditions: α-MSH 30 pg/ml, anti-CD3, 24 h
Experimental: Flow Cytometry. For immunostaining and flow cytometry, T cells (2×10^6 cells) were obtained from 24 hour cultures of enriched primed T cells TCR-stimulated in the presence of α-MSH as described above. The cells were centrifuged and washed once in 400 μl of brefeldin/PBS buffer (10 mM PBS, 10 μg/ml brefeldin A). The cells were resuspended in 100 μl of PBS/brefeldin and 100 μl of 4% paraformaldehyde/PBS fixing buffer. The cells were incubate at room temperature for 20 minutes with gentle agitation and washed once with 200 μl of brefeldin/PBS, centrifuged, and resuspended in 50 μl of PBS/saponin (10 mM PBS, 1% BSA, 0.1% Na Azide, 0.5% Saponin) and incubated 10 minutes at room temperature. To the cell suspensions 2 μg of FITC-conjugated anti-cytokine antibody (anti-IL-4 or -IFN-γ) or FITC-isotype control was added. […] The stained cells were analyzed by a Coulter Epics flow cytometer calibrated for two color fluorescence, and presented were the fluorescence of blast (proliferating) cells in two dimensions.
To further examine α-MSH suppression of IFN-γ production by T cells, the frequency of IFN-γ producing T cells activated in the presence of α-MSH was assayed by flow cytometry. […] The stained cells were analyzed by two-color flow cytometry gating on the blastogenic, proliferating T cells. […] Percent of analyzed cell population is given for each quadrant in the lower right-hand of each histogram. […]

[1] = TCR-stimulated in the presence of α-MSH

Substance: α-melanocyte stimulating hormone (SYSMEHFRWGKPV; not fully specified; ends and bridges not checked; UniProt P01189 138-150, looked up) [α-MSH, synthetic α-MSH (Peninsula Laboratories); thirteen-amino acid neuropeptide derived from POMC]
- IL-4 in culture supernatant (primed T cells; [1]): no effect; also recorded: no IL-4 was detected
- IL-10 production (primed T cells; [1]): suppressed
- IFN-γ production by TCR-stimulated primed T cells (primed T cells; versus T cells TCR-stimulated in the absence of α-MSH): significantly (p=0.05) suppressed
- frequency of IFN-γ positive cells, intracellular IFN-γ staining in CD4+ T cells (CD4+ T cells): substantially shifted toward lower levels
- intracellular IL-4 staining in CD4+ T cells (CD4+ T cells): shift to higher levels
